Measured values: paper PMC8421619, “Investigation of MDMA Inhibitory Effect on CytochromeP450 3A4 in Isolated Perfused Rat Liver Model Using Tramadol” (Advanced Pharmaceutical Bulletin, 2020)
Marks after values point to notes of the source that are not given here.

Experiments:
CYP2D6 = assay: Isolated perfused rat liver, tramadol O-demethylation to M1 after MDMA or paroxetine pretreatment; assay type: in vivo; settings: tramadol 1 µg/mL, n=4; for Metabolite ratio M1 % decrease compared to the control group: AUC0-t M1 / AUC0-t tramadol
CYP3A4 = assay: Isolated perfused rat liver, tramadol N-demethylation to M2 after MDMA or paroxetine pretreatment; assay type: in vivo; settings: regular doses of MDMA (1-10 mg/kg)
[1] = parameters: method as in doi:10.1007/s002130000545, PMID 12404536, PMID 12869661; settings: following ecstasy consumption; cited from earlier work
[2] = Isolated perfused rat liver, tramadol AUC in perfusate after MDMA or paroxetine pretreatment; assay type: in vivo; settings: MDMA 1, 5 and 10 mg/kg i.p.; tramadol 1 µg/mL

SMILES	AUC M1 % decrease compared to the control group (CYP2D6; paroxetine 0.266 mg/kg oral, three consecutive days, listed as PXL)	Metabolite ratio M1 % decrease compared to the control group (CYP2D6; paroxetine 0.266 mg/kg oral, three days)	Metabolite ratio M1 % decrease compared to the control group (CYP2D6; paroxetine 0.266 mg/kg oral, three days, listed as PXL)	CYP3A4 activity inhibition (CYP3A4)	duration of positive psychological effects [1]	AUC M1 % decrease compared to the control group (CYP2D6; MDMA 1 mg/kg i.p. 1 h before liver perfusion)	Metabolite ratio M1 % decrease compared to the control group (CYP2D6; MDMA 1 mg/kg i.p.)	AUC M1 % decrease compared to the control group (CYP2D6; MDMA 10 mg/kg i.p. 1 h before liver perfusion)	Metabolite ratio M1 % decrease compared to the control group (CYP2D6; MDMA 10 mg/kg i.p.)	tramadol AUC compared to the control group [2]
Fc1ccc([C@@H]2CCNC[C@H]2COc2ccc3c(c2)OCO3)cc1 [paroxetine]	40* %	30%	30* %	–	–	–	–	–	–	–
CNC(C)Cc1ccc2c(c1)OCO2 (stereo not shown) [MDMA, methylenedioxymethamphetamine]	–	–	–	cannot inhibit	3-6 hours	38%	29%	50%	45%	no significant differences
